Experimental data: US20240287138A1, “CYCLIC PEPTIDES FOR INHIBITING TNF RECEPTOR 1 ACTIVITY” (Merck Sharp & Dohme LLC, priority 2023, published 2024)
Read-outs that look alike come from different tables or passages of the source. Numbered stars: 1 amine (or outer) side, 2 acyl side, 3 side chain; on linkers, the order of the positions; unused ones are H or OH. Bridge positions count the residues as written; N and C are the ends. Square brackets hold non-standard residues; d marks the D form. Peptide text beside a SMILES is read from it. Trp(βS-Me,7-OMe) = COc1cccc2c([C@H](C)[C@H](N)C(=O)O)c[nH]c12; X12 = C[C@@H](c1ccc(O)cc1)[C@H](N[*:1])C(=O)[*:2]; Trp(7-Cl) = N[C@@H](Cc1c[nH]c2c(Cl)cccc12)C(=O)O; Phe(4-CONH2) = NC(=O)c1ccc(C[C@H](N)C(=O)O)cc1; Phe(4-COOH) = N[C@@H](Cc1ccc(C(=O)O)cc1)C(=O)O; X25 = O=C(O)c1ccc(C[C@H](N[*:1])C(=O)[*:2])cn1; Trp(7-aza) = N[C@@H](Cc1c[nH]c2ncccc12)C(=O)O; X18 = O=C([C@@H]1C=C[C@H](N[*:1])C1)[*:2]; Pip(5R-OH) = O=C(O)[C@@H]1CC[C@@H](O)CN1; X1 = O=C([C@@H]1CC[C@H](N[*:1])C1)[*:2]; Pip(4-aza) = O=C(O)[C@@H]1CNCCN1; hPhe = N[C@@H](CCc1ccccc1)C(=O)O; 4Pal = N[C@@H](Cc1ccncc1)C(=O)O; NMeE = CN[C@@H](CCC(=O)O)C(=O)O; dHyp = O=C(O)[C@H]1C[C@H](O)CN1; αMeS = C[C@](N)(CO)C(=O)O; NMeA = CN[C@@H](C)C(=O)O; Nle = CCCC[C@H](N)C(=O)O; Sar = CNCC(=O)O

How the values were obtained:
[1] = target: T1, TNFα-induced NF-κB signal transduction pathway (TNFR1 signaling) in THP-1 cells (Homo sapiens, UniProt P19438); assay: THP-1 Lucia NF-κB reporter cell assay, inhibition of TNFα-induced NF-κB signaling; type: cell-based; conditions: THP-1 NF-κB Lucia reporter cells, 10 ng/mL TNFα, 16-18 h, secreted luciferase; read-out: THP-1 IC50
T1 sequence (P19438 30-455): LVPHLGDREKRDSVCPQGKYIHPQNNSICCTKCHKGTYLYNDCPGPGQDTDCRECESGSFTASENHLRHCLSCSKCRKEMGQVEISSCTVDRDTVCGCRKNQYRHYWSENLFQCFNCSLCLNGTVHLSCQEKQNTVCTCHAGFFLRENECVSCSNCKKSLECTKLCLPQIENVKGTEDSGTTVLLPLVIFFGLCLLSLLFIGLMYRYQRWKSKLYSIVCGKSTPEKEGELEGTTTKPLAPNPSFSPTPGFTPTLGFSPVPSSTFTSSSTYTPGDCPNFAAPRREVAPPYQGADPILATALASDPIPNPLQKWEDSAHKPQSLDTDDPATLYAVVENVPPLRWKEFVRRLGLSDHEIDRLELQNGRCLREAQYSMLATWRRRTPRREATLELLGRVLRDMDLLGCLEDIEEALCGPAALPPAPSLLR
How it was run: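 Macrocyclic peptides were preincubated 1 h at 37 °C with THP-1 NF-κB-Lucia reporter cells (20,000 cells/well) in antibiotic-free RPMI 1640/10% FBS, then stimulated with 10 ng/mL human TNFα overnight (16-18 h). Secreted luciferase in supernatant was read by luminescence; IC50 from 4-parameter logistic fits.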

[2] = target: T2, human TNFR1 extracellular domain (ECD) protein (Homo sapiens, UniProt P19438); assay: SPR binding affinity to captured human TNFR1 ECD
T2 construct: HRV 3C protease cleavage site (C); 6His (C, cleaved yes); made in house; host or cells: Sf21 insect cells (baculovirus), secreted
T2 sequence (P19438 30-211): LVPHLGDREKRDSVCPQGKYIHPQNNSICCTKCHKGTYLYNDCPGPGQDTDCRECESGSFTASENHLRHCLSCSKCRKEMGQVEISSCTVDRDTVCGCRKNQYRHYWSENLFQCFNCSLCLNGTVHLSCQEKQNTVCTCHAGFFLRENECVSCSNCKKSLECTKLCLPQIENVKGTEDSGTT
Description: (§1) B. Procedure for Binding Affinity and Selectivity measured by SPR
(§2) Affinity and selectivity for hTNFR1 and TNFR2 was determined using SPR. Human TNFR1 or TNFR2 genes (extracellular domain only) were synthesized with a C-terminal Avi-tag, HRV 3C protease cleavage site followed by a 6His-tag for affinity purification. The final gene product was cloned into pBAC™-1 vector (Millipore Sigma) for expression testing in insect cells. Constructs were transfected into Sf21 cells for baculovirus generation followed by protein expression analysis in Sf21 and Tni cell lines. Large scale expression in Sf21 cells was performed using baculovirus infected insect cells (BIICs) infected at a MOI=2.0 grown for 72 h. Target proteins secreted into the media were harvested via centrifugation and concentrated using diafiltration. TNFR was purified by immobilized metal ion affinity chromatography (IMAC) using a Ni-Sepharose HisTrap™ column (Cytiva™). Isolated TNFR had His tag removed using HRV 3C protease followed by additional purification using Ni-NTA chromatography. Biotinylation was performed on Ni-NTA flow-through fractions concentrated to 45 μM and treated with BirA ligase (1:100, μg/μg ratio) in 50 mM Tris pH 7.5, 150 mM NaCl, 50 μM biotin, 10 mM magnesium acetate, 10 mM ATP at 4° C. for 20 h. Final purification of biotin-TNFR and buffer exchange into 20 mM HEPES pH 7.5, 150 mM NaCl was performed using a HiLoad® Superdex® 200 26/60 column (Cytiva™). Highly purified protein was aliquoted and stored at −80° C.
(§3) The SPR assay uses a Cytiva™ 8K or 8K+ biosensor instrument to measure the kinetics of peptide analytes binding to captured human TNFR1 extracellular domain (ECD) protein; peptide analytes are also evaluated for any off-target binding to human TNFR2 ECD protein in parallel. Recombinant human TNFR1 ECD and human TNFR2 ECD proteins, biotinylated via engineered C-terminal avi-tags, are immobilized to a regenerable streptavidin biosensor chip surface (Cytiva™ Biotin CAPture kit, Series S; cat. #28920234). Peptide analytes binding to immobilized human TNFR1 ECD protein and their subsequent dissociation are conducted in a buffer of 10 mM HEPES pH 7.4, 150 mM NaCl, 3 mM EDTA, 0.05% P20,2% DMSO under laminar flow conditions and measured in response units (RU), which are directly proportional to the accumulated mass on the surface of the biosensor chip; the biosensor chip surface is regenerated via Cytiva™ proprietary methods between the evaluation of each peptide analyte. […] The SPR assay determines the association and dissociation rate constants, kon and koff, for each peptide analyte and, from these values, calculates the binding affinity, […] reported in Table 2.

human TNFR2 ECD protein = target: T3, human TNFR2 ECD protein (Homo sapiens, UniProt P20333); assay: SPR off-target binding (selectivity) to human TNFR2 ECD
T3 construct: HRV 3C protease cleavage site (C); 6His (C, cleaved yes); made in house; host or cells: Sf21 insect cells (baculovirus), secreted
T3 sequence (P20333 23-257): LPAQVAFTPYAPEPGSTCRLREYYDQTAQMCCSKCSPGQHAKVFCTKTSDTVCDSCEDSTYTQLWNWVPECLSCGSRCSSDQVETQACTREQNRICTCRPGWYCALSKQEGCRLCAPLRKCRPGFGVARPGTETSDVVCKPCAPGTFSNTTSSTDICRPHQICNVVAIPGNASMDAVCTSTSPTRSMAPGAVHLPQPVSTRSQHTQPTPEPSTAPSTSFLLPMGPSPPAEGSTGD
Description: as §1, §2, §3

`CCCC[C@@H]1NC(=O)CSC[C@@H](C(N)=O)NC(=O)[C@H]([C@@H](C)c2c[nH]c3c(OC)cccc23)NC(=O)CN(C)C(=O)[C@H](Cc2ccc(O)cc2)NC(=O)[C@H](Cc2ccc(C(=O)O)cc2)NC(=O)[C@](C)(CO)NC(=O)[C@H](Cc2c[nH]c3c(Cl)cccc23)NC(=O)[C@H](Cc2ccncc2)NC(=O)[C@H](CC(N)=O)NC(=O)[C@H](CCC(=O)O)N(C)C(=O)[C@H](Cc2c[nH]c3ncccc23)NC(=O)[C@H](CO)NC(=O)[C@H]([C@@H](C)c2ccc(O)cc2)NC1=O` [SEQ ID NO. 46] ({CH2CO}-[Nle][X12]S[Trp(7-aza)][NMeE]N[4Pal][Trp(7-Cl)][αMeS][Phe(4-COOH)]Y[Sar][Trp(βS-Me,7-OMe)]C-NH2; thioether N-14) was tested, and the IC50 [1] was 3 nM, the Kd [2] was 0.07 nM and the Kd (human TNFR2 ECD protein) was over 1000 nM.
Work on `CCCC[C@@H]1NC(=O)[C@@H]2CC[C@@H](C2)NC(=O)[C@H]([C@@H](C)c2c[nH]c3c(OC)cccc23)NC(=O)CN(C)C(=O)[C@H](Cc2ccc(C(=O)O)cc2)NC(=O)[C@H](Cc2ccc(C(N)=O)cc2)NC(=O)[C@](C)(CO)NC(=O)[C@H](Cc2c[nH]c3c(Cl)cccc23)NC(=O)[C@H](Cc2ccc(C(=O)O)nc2)NC(=O)[C@H](CC(N)=O)NC(=O)[C@H]2C[C@H](O)CN2C(=O)[C@H](Cc2c[nH]c3ncccc23)NC(=O)[C@@H]2CC[C@@H](O)CN2C(=O)[C@H](Cc2ccncc2)NC1=O` [SEQ ID NO. 57] (cyclo([4Pal][Pip(5R-OH)][Trp(7-aza)][dHyp]N[X25][Trp(7-Cl)][αMeS][Phe(4-CONH2)][Phe(4-COOH)][Sar][Trp(βS-Me,7-OMe)][X1][Nle])) yielded an IC50 [1] of 0.8 nM, a Kd [2] of 0.09 nM and a Kd (human TNFR2 ECD protein) of over 1000 nM.
`CCCC[C@@H]1NC(=O)CSC[C@@H](C(N)=O)NC(=O)[C@H]([C@@H](C)c2c[nH]c3c(OC)cccc23)NC(=O)CN(C)C(=O)[C@H](Cc2ccc(O)cc2)NC(=O)[C@H](Cc2ccc(C(=O)O)cc2)NC(=O)[C@](C)(CO)NC(=O)[C@H](Cc2c[nH]c3c(Cl)cccc23)NC(=O)[C@H](Cc2ccncc2)NC(=O)[C@H](CC(N)=O)NC(=O)[C@H](CCC(=O)O)N(C)C(=O)[C@H](Cc2c[nH]c3ncccc23)NC(=O)[C@@H]2CNCCN2C(=O)[C@H](Cc2ccncc2)NC1=O` [SEQ ID NO. 68] ({CH2CO}-[Nle][4Pal][Pip(4-aza)][Trp(7-aza)][NMeE]N[4Pal][Trp(7-Cl)][αMeS][Phe(4-COOH)]Y[Sar][Trp(βS-Me,7-OMe)]C-NH2; thioether N-14) gave an IC50 [1] of 3 nM, a Kd ([2]; biotinylated human TNFR1 ECD on streptavidin chip, from kon and koff, read-out: SPR hTNFR1 KD) of 0.55 nM and a Kd (human TNFR2 ECD protein; biotinylated human TNFR2 ECD on streptavidin chip, read-out: SPR hTNFR2 KD) of over 1000 nM.
In the case of `C[C@H]1C(=O)N[C@@H](CC(N)=O)C(=O)N[C@@H](Cc2ccncc2)C(=O)N[C@@H](Cc2c[nH]c3ccccc23)C(=O)N[C@@](C)(CO)C(=O)N[C@@H](Cc2ccc(C(=O)O)cc2)C(=O)N[C@@H](Cc2ccc(O)cc2)C(=O)N(C)CC(=O)N[C@@H](Cc2c[nH]c3ccccc23)C(=O)N[C@H]2C=C[C@H](C2)C(=O)N[C@@H](CCc2ccccc2)C(=O)N[C@@H](Cc2ccncc2)C(=O)N[C@@H](CO)C(=O)N[C@@H](Cc2c[nH]c3ccccc23)C(=O)N1C` [SEQ ID NO. 73] (cyclo([4Pal]SW[NMeA]N[4Pal]W[αMeS][Phe(4-COOH)]Y[Sar]W[X18][hPhe])), the IC50 [1] is reported as 5.8 nM, the Kd [2] is reported as 0.9 nM and the Kd (human TNFR2 ECD protein) is reported as over 1000 nM.
